Reference: PMC6136712, “Ex vivo drug sensitivity testing as a means for drug repurposing in esophageal adenocarcinoma” (PLoS ONE, 2018)
pEC50: −log10 of the molar value. Structures can show the parent of a compound that is named as a salt.

How the values were obtained:
Assay type in all cases: cell-based, human
EAC42 cells = assay: FDA library drug sensitivity testing (CellTiter-Glo, 72 h); conditions: EAC42; sDSSmod = DSSmod (patient cells) - DSSmod (normal cells)
Source text: (§1) OE33, OE19 and SKGT2 human esophageal adenocarcinoma cell lines were obtained from the European Collection of Cell Culture ([…]). Flo1, EAC42 and EAC47 cells were established in the Capobianco Laboratory. EAC42 and EAC47 human esophageal adenocarcinoma cell lines are derived from patients undergoing surgery at the Miller School of Medicine, University of Miami. The Capobianco laboratory obtained written informed consent from all patients and approval from the Institutional Research Ethics Committee.
(§2) Drug sensitivity testing (DST) was performed as described previously. […] Individual drugs were dissolved in 100% DMSO and tested in duplicates starting at a maximal test concentration of 10μM then over a 20,000-fold concentration range to generate dose response curves. Wells with assay buffer containing DMSO served as negative controls. 1000 exponentially growing cells were seeded per well in 384-well micro-titer plates and incubated in the presence of compounds in a humidified environment at 37°C and 5% CO2. After 72 hours of treatment, cell viability was assessed by measuring ATP levels via bioluminescence (CellTiter-Glo, Promega) according to manufactures recommendations. Interpretation of curve parameters was performed according to the modified drug sensitivity scoring (DSSmod) function developed by Swords et al. […] Given in this way, the sDSSmod incorporated information on each drug’s potency, efficacy, effect range and therapeutic index, making it possible to prioritize compounds over multiple parameters using a single numerical metric. […] All calculations and scoring routines are implemented in MatLab and additional curve fitting and statistical analyses are performed in GraphPad prism.

OE33 cells = assay: as above; conditions: OE33; sDSSmod = DSSmod (patient cells) - DSSmod (normal cells)
Source text: as §1, §2

OE19 cells = assay: as above; conditions: sDSSmod = DSSmod (patient cells) - DSSmod (normal cells)
Source text: as §1, §2

EAC47 cells = assay: as above; conditions: EAC47; sDSSmod = DSSmod (patient cells) - DSSmod (normal cells)
Source text: as §1, §2

[1] = system: normal esophageal epithelium cell line EACN42; assay: FDA library drug sensitivity testing (CellTiter-Glo, 72 h), normal control cells; parameters: key to DSS: modified drug sensitivity score (DSSmod) from dose-response curve fit
Method in brief: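 HPV E6-E7-immortalized normal human esophageal epithelial cells, 1000 per well, exposed 72 h at 37 °C to drugs in duplicate from 10μM top concentration across a 20,000-fold range. Viability by ATP bioluminescence; DMSO wells as negative control; curves scored with modified drug sensitivity score (DSSmod).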

SK-GT2 cells = assay: FDA library drug sensitivity testing (CellTiter-Glo, 72 h); conditions: SK-GT2; sDSSmod = DSSmod (patient cells) - DSSmod (normal cells)
Source text: as §1, §2

Flo-1 cells = assay: as above; conditions: Flo-1; sDSSmod = DSSmod (patient cells) - DSSmod (normal cells)
Source text: as §1
Drug sensitivity testing (DST) was performed as described previously. […] Individual drugs were dissolved in 100% DMSO and tested in duplicates starting at a maximal test concentration of 10μM then over a 20,000-fold concentration range to generate dose response curves. Wells with assay buffer containing DMSO served as negative controls. 1000 exponentially growing cells were seeded per well in 384-well micro-titer plates and incubated in the presence of compounds in a humidified environment at 37°C and 5% CO2. After 72 hours of treatment, cell viability was assessed by measuring ATP levels via bioluminescence (CellTiter-Glo, Promega) according to manufactures recommendations. Interpretation of curve parameters was performed according to the modified drug sensitivity scoring (DSSmod) function developed by Swords et al. As a final step, the selective DSSmod (sDSSmod) for each drug in each patient screen is calculated according to the formula sDSSmod = DSSmod (patient cells)—DSSmod (normal cells). Given in this way, the sDSSmod incorporated information on each drug’s potency, efficacy, effect range and therapeutic index, making it possible to prioritize compounds over multiple parameters using a single numerical metric. In addition, this methodology allows us to rank compounds by cancer-selective efficacy for each individual patient. […] All calculations and scoring routines are implemented in MatLab and additional curve fitting and statistical analyses are performed in GraphPad prism.

[2] = Homo sapiens, 72 h, EACN42 normal esophageal cells, cell viability (ATP), max test concentration 10μM
[3] = drug sensitivity score, EACN42 normal esophageal cells, 72 h
[4] = EACN42 normal esophageal cells, 72 h, cell viability (ATP), max test concentration 10μM

| Compound | sDSSmod (EAC42 cells) | sDSSmod (OE33 cells) | sDSSmod (OE19 cells) | sDSSmod (EAC47 cells) | pEC50 [1, 2] | DSS [1, 3] | sDSSmod (SK-GT2 cells) | sDSSmod (Flo-1 cells) | pEC50 [1, 4] | pEC50 ([1]; Homo sapiens; EACN42 normal esophageal cells, 72 h, cell viability (ATP), max test concentration 10μM) |
| --- | --- | --- | --- | --- | --- | --- | --- | --- | --- | --- |
| CN(Cc1cnc2nc(N)nc(N)c2n1)c1ccc(C(=O)N[C@@H](CCC(=O)O)C(=O)O)cc1 [Abitrexate, Methotrexate] | 31.2825 | 16.69 | -21.1435 | 35.78 | 7.40 | 21.14 | – | – | – | – |
| Cn1cnc([N+](=O)[O-])c1Sc1ncnc2nc[nH]c12 [Azathioprine] | 6.181 | – | – | 7.783 | – | 0.02 | 5.733 | – | – | – |
| Nc1nc(Cl)nc2c1ncn2[C@@H]1O[C@H](CO)[C@@H](O)[C@@H]1F [Clofarabine] | -8.024 | 16.0076 | -19.554 | -10.1317 | 7.15 | 19.89 | -9.559 | – | – | – |
| CC(=O)O[C@@]12CO[C@@H]1C[C@H](O)[C@@]1(C)C(=O)[C@H](O)C3=C(C)[C@@H](OC(=O)[C@H](O)[C@@H](NC(=O)OC(C)(C)C)c4ccccc4)C[C@@](O)([C@@H](OC(=O)c4ccccc4)[C@H]21)C3(C)C [Docetaxel] | -15.5932 | – | – | -23.2183 | 5.52 | 40.14 | 16.5247 | 8.04 | – | – |
| COc1cccc2c1C(=O)c1c(O)c3c(c(O)c1C2=O)C[C@@](O)(C(=O)CO)C[C@@H]3O[C@H]1C[C@H](N)[C@@H](O)[C@H](C)O1 [Epirubicin Hydrochloride] | – | 6.778 | -11.4055 | – | 5.92 | 18.98 | -9.535 | – | – | – |
| CO[C@H]1C[C@@H]2CC[C@@H](C)[C@@](O)(O2)C(=O)C(=O)N2CCCC[C@H]2C(=O)O[C@H]([C@H](C)C[C@@H]2CC[C@@H](OCCO)[C@H](OC)C2)CC(=O)[C@H](C)/C=C(\C)[C@@H](O)[C@@H](OC)C(=O)[C@H](C)C[C@H](C)/C=C/C=C/C=C/1C [Everolimus] | – | -5.493 | – | -5.697 | 5.05 | 7.57 | -5.054 | – | – | – |
| O=c1[nH]c(=O)n([C@H]2C[C@H](O)[C@@H](CO)O2)cc1F [Floxuridine] | 40.61 | 13.67 | – | 35.54 | 6.08 | 4.9 | – | – | – | – |
| Nc1nc(F)nc2c1ncn2[C@@H]1O[C@H](CO)[C@@H](O)[C@@H]1O [Fludarabine] | -42.0707 | -9.248 | -20.7262 | -42.19 | 7.15 | 42.19 | -12.4173 | – | – | – |
| Nc1ccn([C@@H]2O[C@H](CO)[C@@H](O)C2(F)F)c(=O)n1 [Gemzar] | 17.37 | 11.79 | -11.949 | 10.03 | – | 16.2 | – | – | 6.11 | – |
| C=CC(=O)N1CCC[C@@H](n2nc(-c3ccc(Oc4ccccc4)cc3)c3c(N)ncnc32)C1 [Ibrutinib] | – | – | 31.18 | – | – | 0 | 39.31 | – | – | – |
| CC(=O)[C@]1(O)Cc2c(O)c3c(c(O)c2[C@@H](O[C@H]2C[C@H](N)[C@H](O)[C@H](C)O2)C1)C(=O)c1ccccc1C3=O [Idarubicin HCl] | 6.506 | 15.06 | -22.4296 | – | 6.15 | 26.1 | -17.1644 | – | – | – |
| CCc1c2c(nc3ccc(OC(=O)N4CCC(N5CCCCC5)CC4)cc13)-c1cc3c(c(=O)n1C2)COC(=O)[C@]3(O)CC.Cl.O.O.O [Irinotecan HCl Trihydrate] | -6.563 | 12.07 | -12.0524 | -6.3823 | – | 13.38 | -7.5553 | – | 5.80 | – |
| CCc1c2c(nc3ccc(OC(=O)N4CCC(N5CCCCC5)CC4)cc13)-c1cc3c(c(=O)n1C2)COC(=O)[C@]3(O)CC [Irinotecan] | – | 5.246 | -6.34 | -5.5855 | 5.29 | 6.99 | -5.574 | – | – | – |
| S=c1[nH]cnc2nc[nH]c12 [Mercaptopurine] | 10.48 | – | – | 10.9 | < 5.00 | 0.05 | – | – | – | – |
| O=C1c2c(O)ccc(O)c2C(=O)c2c(NCCNCCO)ccc(NCCNCCO)c21 [Mitoxantrone Hydrochloride] | 6.699 | 9.033 | – | 5.242 | 5.78 | 17.16 | – | 17.0838 | – | – |
| COc1c(C)c2c(c(O)c1C/C=C(\C)CCC(=O)OCCN1CCOCC1)C(=O)OC2 [Mycophenolate mofetil] | 6.417 | 11.03 | – | – | 5.66 | 2.66 | – | 5.44 | – | – |
| COc1c(C)c2c(c(O)c1C/C=C(\C)CCC(=O)O)C(=O)OC2 [Mycophenolic] | 8.479 | 16.23 | – | 5.9818 | – | 2.17 | – | 10.92 | – | – |
| Cc1ccc(Nc2nccc(N(C)c3ccc4c(C)n(C)nc4c3)n2)cc1S(N)(=O)=O.Cl [Pazopanib HCl] | – | 11.37 | – | – | – | 0.07 | – | 8.16 | – | – |
| Nc1nc2[nH]cc(CCc3ccc(C(=O)N[C@@H](CCC(=O)O)C(=O)O)cc3)c2c(=O)[nH]1 [Pemetrexed] | 14.62 | 25.32 | -15.3102 | 14.75 | 7.22 | 16.15 | – | – | – | – |
| Cc1ccc(C(=O)Nc2ccc(CN3CCN(C)CC3)c(C(F)(F)F)c2)cc1C#Cc1cnc2cccnn12 [Ponatinib] | -11.7731 | -6.155 | -11.756 | -11.7731 | – | 11.77 | -11.7711 | – | – | 5.55 |
| CCC(C)(C)C(=O)O[C@H]1C[C@@H](C)C=C2C=C[C@H](C)[C@H](CC[C@@H]3C[C@@H](O)CC(=O)O3)[C@H]21 [Simvastatin] | -5.363 | 26.15 | -5.647 | -5.66 | 5.47 | 5.66 | -5.66 | – | – | – |
| COc1cc([C@@H]2c3cc4c(cc3[C@@H](O[C@@H]3O[C@@H]5CO[C@@H](c6cccs6)O[C@H]5[C@H](O)[C@H]3O)[C@H]3COC(=O)[C@H]23)OCO4)cc(OC)c1O [Teniposide] | – | 39.45 | – | – | 5.29 | 6.79 | – | 10.22 | – | – |
| Nc1nc2nc[nH]c2c(=S)[nH]1 [Thioguanine] | 9.961 | 42.58 | – | 8.364 | 5.50 | 4.62 | 6.838 | – | – | – |
| COc1cc2c(Nc3ccc(Br)cc3F)ncnc2cc1OCC1CCN(C)CC1 [Vandetanib] | – | 8.255 | 7.027 | – | 5.35 | 0.13 | 7.721 | – | – | – |
| O=P(O)(O)C(O)(Cn1ccnc1)P(=O)(O)O [Zoledronic Acid] | 9.833 | – | – | 6.526 | – | 0 | – | 5.26 | – | – |
